In this test the test system is L1210 leukemia ip in BDF1 mice, survival T/C. The test is described as follows: NCI In Vivo Anticancer Drug Screen. Data for tumor model L1210 Leukemia (intraperitoneal) in B6D2F1 (BDF1) mice. The following applies: endpoint: mean survival time, higher = longer survival. The method in brief: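 Transplantable tumor model; survival measured in treated vs vehicle control mice. Value = treated/control.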

Where [1] appears, read: dose: 100.0 mg/kg/injection, schedule: Q04DX003 (ip), vehicle: saline.
[2] abbreviates: dose: 200.0 mg/kg/injection, schedule: Q04DX003 (ip), vehicle: saline.
Where [3] appears, read: dose: 400.0 mg/kg/injection, schedule: Q04DX003 (ip), vehicle: saline.
[4] abbreviates: dose: 100.0 mg/kg/injection, schedule: Q01DX001 (ip), vehicle: carboxymethylcellulose (CMC).
Setting [5] is: dose: 200.0 mg/kg/injection, schedule: Q01DX001 (ip), vehicle: carboxymethylcellulose (CMC).
Setting [6] is: dose: 400.0 mg/kg/injection, schedule: Q01DX001 (ip), vehicle: carboxymethylcellulose (CMC).
Where [7] appears, read: dose: 100.0 mg/kg/injection, schedule: Q04DX003 (ip), vehicle: acetone.
The mark [8] stands for this setting: dose: 200.0 mg/kg/injection, schedule: Q04DX003 (ip), vehicle: acetone.
Where [9] appears, read: dose: 400.0 mg/kg/injection, schedule: Q04DX003 (ip), vehicle: acetone.

Where “and” joins values, the source holds several entries; their conditions need not be identical. Equal entries are not always repeated. Inconclusive results and toxic doses are left out.

This is an account of results in PubChem BioAssay AID248 (DTP/NCI, 2004).

For the compound `COCCCN=C(N)c1ccc(NC(=O)c2ccc(C(=O)Nc3ccc(C(N)=NCCCOC)cc3)cc2)cc1`, the T/C was 114 % of control (dose: 0.75 mg/kg/injection, schedule: Q01DX Z (ip), vehicle: saline); 106 % of control (dose: 1.0 mg/kg/injection, schedule: Q01DX006 (iv), vehicle: saline); 119 % of control (dose: 1.0 mg/kg/injection, schedule: Q01DX Z (ip), vehicle: saline); 102 % of control (dose: 1.0 mg/kg/injection, schedule: Q01DX Z (sc), vehicle: saline); 96 % of control (dose: 1.0 mg/kg/injection, schedule: Q02DX004 (im), vehicle: saline); 98 % of control (dose: 2.0 mg/kg/injection, schedule: Q01DX006 (iv), vehicle: saline). The T/C (dose: 2.0 mg/kg/injection, schedule: Q01DX Z (sc), vehicle: saline) was 90 % of control; the T/C (dose: 2.0 mg/kg/injection, schedule: Q02DX004 (im), vehicle: saline) was 107 % of control; the T/C (dose: 3.0 mg/kg/injection, schedule: Q01DX Z (ip), vehicle: saline) is 156 % of control and 183 % of control; the T/C (dose: 4.0 mg/kg/injection, schedule: Q01DX006 (iv), vehicle: saline) was 122 % of control; the T/C (dose: 4.0 mg/kg/injection, schedule: Q01DX Z (ip), vehicle: saline) is 223 % of control; the T/C (dose: 4.0 mg/kg/injection, schedule: Q01DX Z (sc), vehicle: saline) is 154 % of control. For the same compound, the T/C was 106 % of control (dose: 4.0 mg/kg/injection, schedule: Q02DX004 (im), vehicle: saline); 269 % of control (dose: 6.0 mg/kg/injection, schedule: Q01DX Z (ip), vehicle: saline); 97 % of control (dose: 6.0 mg/kg/injection, schedule: Q01DX Z (oral), vehicle: saline); 189 % of control (dose: 8.0 mg/kg/injection, schedule: Q01DX006 (iv), vehicle: saline); 158 % of control (dose: 8.0 mg/kg/injection, schedule: Q01DX Z (sc), vehicle: saline); 100 % of control (dose: 12.0 mg/kg/injection, schedule: Q01DX Z (oral), vehicle: saline). Further, the T/C was 115 % of control (dose: 15.0 mg/kg/injection, schedule: Q01DX Z (ip), vehicle: saline); 112 % of control (dose: 16.0 mg/kg/injection, schedule: Q01DX Z (ip), vehicle: saline); 116 % of control (dose: 16.0 mg/kg/injection, schedule: Q01DX Z (sc), vehicle: saline); 154 % of control (dose: 16.0 mg/kg/injection, schedule: Q02DX004 (im), vehicle: saline); 102 % of control (dose: 24.0 mg/kg/injection, schedule: Q01DX Z (oral), vehicle: saline); 118 % of control (dose: 32.0 mg/kg/injection, schedule: Q02DX004 (im), vehicle: saline). For the same compound, the T/C was 100 % of control (dose: 48.0 mg/kg/injection, schedule: Q01DX Z (oral), vehicle: saline); 96 % of control (dose: 62.5 mg/kg/injection, schedule: Q## X010 (oral), vehicle: saline); 119 % of control (dose: 250.0 mg/kg/injection, schedule: Q## X010 (oral), vehicle: saline).
Consider `CCOc1ccn(CC(=O)Nc2nccs2)c(=O)n1`, for which the T/C was 100 % of control (dose: 100.0 mg/kg/injection, schedule: Q01DX009 (ip), vehicle: saline); 98 % of control under setting [1]; 103 % of control (dose: 200.0 mg/kg/injection, schedule: Q01DX009 (ip), vehicle: saline); 96 % of control under setting [2]; 105 % of control (dose: 400.0 mg/kg/injection, schedule: Q01DX009 (ip), vehicle: saline); 100 % of control under setting [3].
On to `Cc1nc(N)[nH]c(=O)c1CCCOc1ccccc1`, for which the T/C was 95 % of control (dose: 50.0 mg/kg/injection, schedule: Q01DX Z (ip), vehicle: carboxymethylcellulose (CMC)); 93 % of control (dose: 100.0 mg/kg/injection, schedule: Q01DX Z (ip), vehicle: carboxymethylcellulose (CMC)); 93 % of control (dose: 200.0 mg/kg/injection, schedule: Q01DX Z (ip), vehicle: carboxymethylcellulose (CMC)); 93 % of control (dose: 400.0 mg/kg/injection, schedule: Q01DX Z (ip), vehicle: carboxymethylcellulose (CMC)).
Take `CCCCCCCCCCOP(OCCCCCCCCCC)Oc1ccccc1`: the T/C is 102 % of control under setting [1], 93 % of control under setting [2] and 102 % of control under setting [3].
As for `CCCCOc1c(OC)cc(OC)cc1C(=O)O`, the T/C was 102 % of control under setting [4], 91 % of control under setting [5] and 86 % of control under setting [6].
Regarding `Clc1ccc(/C=N/c2snc3ccccc23)c(Cl)c1`, the T/C was 95 % of control (dose: 100.0 mg/kg/injection, schedule: Q04DX002 (ip), vehicle: Klucel (hydroxypropylcellulose) (HPC)); 88 % of control (dose: 200.0 mg/kg/injection, schedule: Q04DX002 (ip), vehicle: Klucel (hydroxypropylcellulose) (HPC)); 92 % of control (dose: 400.0 mg/kg/injection, schedule: Q04DX002 (ip), vehicle: Klucel (hydroxypropylcellulose) (HPC)).
For `CCN(CC)CC(O)c1ccnc2c(N)cc(OC)cc12` (configuration not stated), the T/C is, setting by setting: (dose: 75.0 mg/kg/injection, schedule: Q01DX001 (ip), vehicle: acetone) 104 % of control; (dose: 150.0 mg/kg/injection, schedule: Q01DX001 (ip), vehicle: acetone) 101 % of control.
Consider `CC12CCC(C1)C(C)(C)C2NCCCN1C(=O)c2ccc3c4c(ccc(c24)C1=O)C(=O)N(CCCNC1C2(C)CCC(C2)C1(C)C)C3=O` (configuration not stated), for which the T/C reads like this: (dose: 25.0 mg/kg/injection, schedule: Q01DX009 (ip), vehicle: saline) 102 % of control; (dose: 25.0 mg/kg/injection, schedule: Q04DX003 (ip), vehicle: saline) 98 % of control; (dose: 50.0 mg/kg/injection, schedule: Q01DX009 (ip), vehicle: saline) 117 % of control; (dose: 50.0 mg/kg/injection, schedule: Q04DX003 (ip), vehicle: saline) 94 % of control; under setting [1], 96 % of control and 90 % of control.
For `O=C(COc1ccc(Cl)cc1)C1CSc2ccc(Br)cc21` (configuration not stated), the T/C (dose: 100.0 mg/kg/injection, schedule: Q04DX003 (ip), vehicle: saline sonified) was 89 % of control; the T/C (dose: 200.0 mg/kg/injection, schedule: Q04DX003 (ip), vehicle: saline sonified) is 101 % of control; the T/C (dose: 400.0 mg/kg/injection, schedule: Q04DX003 (ip), vehicle: saline sonified) was 92 % of control.
Turning to `CCOCCNc1ccc(S(=O)(=O)c2ccc(N)cc2)cc1N`, the T/C (dose: 100.0 mg/kg/injection, schedule: Q01DX001 (ip), vehicle: saline) is 95 % of control; the T/C (dose: 200.0 mg/kg/injection, schedule: Q01DX001 (ip), vehicle: saline) was 90 % of control; the T/C (dose: 400.0 mg/kg/injection, schedule: Q01DX001 (ip), vehicle: saline) was 97 % of control.
Take `[N-]=[N+]=Nc1ccc2cc3ccccc3nc2c1`: the T/C is, setting by setting: under setting [7], 89 % of control; under setting [8], 95 % of control; under setting [9], 87 % of control.
As to `CC/C(=C\c1cccc([N+](=O)[O-])c1)C(=O)O`, the T/C was 97 % of control (dose: 100.0 mg/kg/injection, schedule: Q01DX009 (ip), vehicle: Klucel (hydroxypropylcellulose) (HPC)); 96 % of control (dose: 100.0 mg/kg/injection, schedule: Q04DX003 (ip), vehicle: Klucel (hydroxypropylcellulose) (HPC)); 92 % of control (dose: 200.0 mg/kg/injection, schedule: Q01DX009 (ip), vehicle: Klucel (hydroxypropylcellulose) (HPC)); 95 % of control (dose: 200.0 mg/kg/injection, schedule: Q04DX003 (ip), vehicle: Klucel (hydroxypropylcellulose) (HPC)); 100 % of control (dose: 400.0 mg/kg/injection, schedule: Q01DX009 (ip), vehicle: Klucel (hydroxypropylcellulose) (HPC)); 95 % of control (dose: 400.0 mg/kg/injection, schedule: Q04DX003 (ip), vehicle: Klucel (hydroxypropylcellulose) (HPC)).
Consider `O=S1(=O)C(Cl)=C(Cl)C2C3CC(C(Cl)C3Cl)C21` (configuration not stated), for which the T/C is 95 % of control (dose: 50.0 mg/kg/injection, schedule: Q01DX009 (ip), vehicle: acetone); 93 % of control (dose: 100.0 mg/kg/injection, schedule: Q01DX009 (ip), vehicle: acetone); 92 % of control under setting [7]; 98 % of control (dose: 200.0 mg/kg/injection, schedule: Q01DX009 (ip), vehicle: acetone); 101 % of control under setting [8]; 92 % of control under setting [9].
Turning to `COc1cc(C)c(C(=O)c2ccccc2N)cc1OC`, the T/C under setting [4] was 105 % of control, the T/C under setting [5] is 118 % of control and the T/C under setting [6] is 96 % of control.
